Reference: patent publication US6518035B1, “Targeted methods of drug screening using co-culture methods” (Rosetta Inpharmatics, Inc., priority 1998, dated 2003)
Where a name gives a salt, the structure may show the parent alone. Read-outs that look alike come from different tables or passages of the source.

Assays:
[1] = system: yeast target and decoy cells; test: Growth (O.D.600) of the target/decoy yeast co-cultures in the MicroSource library screen; format: cell-based, Saccharomyces cerevisiae; conditions: both concentrations (5 μg/ml and 0.5 μg/ml)
Method: The plates were incubated at 30° C.

Erg11p = Erg11p (Saccharomyces cerevisiae, UniProt P10614); conditions: 25 target and 25,000 decoy cells (1:1000), 225 μl, 30° C., up to ten days
Method: Target yeast cells overexpressing the ERG11 gene and GFP were mixed with decoy cells at a ratio of 1:1000 and portioned into 96-well plates. Each well contained 25 target cells and 25,000 decoy cells in 0.225 ml YM medium plus 2% casamino acids. 560 generic drugs from the MicroSource™ library were dispensed to each well to a final concentration of 5 μg/ml or 0.5 μg/ml and 1% DMSO. The plates were incubated at 30° C. for ten days.
To determine the specificity of the TDS assay, a chemical library of 560 compounds was screened using the same strains described in FIG. 2. […] The conditions chosen for the co-culture were 25 target cells and 25,000 decoy cells (1:1000 target: decoy ratio) in a volume of 225 μl.
Overnight cultures of the target and decoy cells were grown in YM medium plus 2% casamino acids to maintain selection for both episomal plasmids. One large batch of fresh medium (YM-Cas) was prepared that contained both target and decoy cells. This culture was diluted to 1×10^5 cells/ml and dispensed into the 96-well plates. Drugs from the Microsource library were then added to the cultures at two concentrations: 5 μg/ml plus 1% DMSO; and 0.5 μg/ml plus 0.1% DMSO. The plates were incubated at 30° C. Fluorescence and O.D.600 measurements were taken twice daily for ten days.

[2] = target: T1, ERG11 gene product, lanosterol 14α-demethylase (Saccharomyces cerevisiae, UniProt P10614); test: TDS co-culture pilot study with clotrimazole: ERG11/GFP-overexpressing target cells mixed with decoy cells, fluorescence readout; format: cell-based; conditions: 30° C., 88 h
T1 construct: expressed in transfected cells; host or cells: S. cerevisiae target strain ABY676 (plasmids pAB98 GFP, pAB99 ERG11), co-cultured with decoy strain ABY674 (empty vectors YEplac195, YEplac112)
Method: FIG. 2: A Signal to noise ratios of ERG11-target and decoy co-cultures grown in the presence of clotrimazole. Cultures were prepared at various ratios of target: decoy cells (columns). Each ratio was also prepared at various total number of cells per well and are indicated at the top. Clotrimazole, which inhibits the ERG11 gene product, was introduced by serial dilution (rows). The concentrations of clotrimazole are indicated to the left of the table. The volume of medium in each well was 0.225 ml. The plate was allowed to incubate at 30° C. for 88 h. Fluorescence signal was determined by subtracting the fluorescent values from a medium control plate from the fluorescence values of each well in the test plate. Signal to noise ratios were determined by dividing these corrected values with the corresponding values in the no-drug well in the bottom row. B O.D.600 values of co-cultures in each well after growth. C A fluorescent image of the source plate.
To determine the optimal assay conditions, various target:decoy ratios were tested in the presence of different clotrimazole concentrations (FIG. 2). Clotrimazole is an anti-fungal compound that inhibits the […] gene product, lanosterol 14α-demethylase, a sterol biosynthetic enzyme (Georgopapadakou and Walsh, 1996, Antimicrob Agents Chemother 40:279-291). […]
Target and decoy cells were mixed at 1:10, 1:100 and 1:1000 ratios in the presence of various concentrations of clotrimazole. […] Following incubation at 30° C. for 88 h, the fluorescence from each well was determined. The fluorescent values were corrected for the background fluorescence of the medium are represented as the fold increase over the fluorescent signal from the corresponding no-drug treatment.
The amount of growth of the cells was determined by measuring optical density at 600 nm in a Molecular Devices Spectra Max 250 plate spectrophotometer (FIG. 2B). A fluorescent image of the plate, which served as the source for quantitation of the fluorescent signals, is also presented (FIG. 2C).

T1 sequence (P10614 whole entry): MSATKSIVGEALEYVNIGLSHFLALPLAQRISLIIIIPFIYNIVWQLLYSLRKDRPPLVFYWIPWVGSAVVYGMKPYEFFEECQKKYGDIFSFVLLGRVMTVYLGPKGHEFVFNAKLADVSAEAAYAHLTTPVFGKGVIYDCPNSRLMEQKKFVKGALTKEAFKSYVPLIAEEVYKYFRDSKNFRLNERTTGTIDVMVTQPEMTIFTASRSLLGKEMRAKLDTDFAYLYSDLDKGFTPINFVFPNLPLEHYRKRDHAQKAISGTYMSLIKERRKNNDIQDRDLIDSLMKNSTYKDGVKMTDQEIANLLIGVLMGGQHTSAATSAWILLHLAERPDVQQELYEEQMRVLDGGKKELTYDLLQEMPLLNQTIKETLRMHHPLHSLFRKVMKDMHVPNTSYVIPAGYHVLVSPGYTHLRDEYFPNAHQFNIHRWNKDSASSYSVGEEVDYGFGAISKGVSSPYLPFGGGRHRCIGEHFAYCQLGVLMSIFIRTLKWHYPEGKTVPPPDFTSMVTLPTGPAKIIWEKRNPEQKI
Chain of Erg11p (P10614 whole entry): as above

SMILES | growth inhibition of co-culture [1] | fluorescent signal of co-culture versus no-drug treatment (Erg11p; 0.5 μg/ml drug plus 0.1% DMSO) | fluorescent signal of co-culture versus no-drug treatment (Erg11p; 5 μg/ml drug plus 1% DMSO) | further results
C[CH2][Hg][S]c1ccccc1C(=O)[O-].[Na+] [thimerosol] | severely inhibited growth |  |  | 
CCCCOc1ccc(C(=O)CCN2CCCCC2)cc1 [dyclonine-HCl] | severely inhibited growth |  |  | 
CN[C@@H](C)[C@H](O)c1ccccc1 [ephedrine-HCl] | severely inhibited growth |  |  | 
Clc1ccc(COC(Cn2ccnc2)c2ccc(Cl)cc2Cl)c(Cl)c1 (stereo not drawn) [miconazole] |  | significant positive signals | too severe a growth inhibition to produce positive signals | 
CC(=O)N1CCN(c2ccc(OCC3COC(Cn4ccnc4)(c4ccc(Cl)cc4Cl)O3)cc2)CC1 (stereo not drawn) [ketoconazole] |  | neither inhibited growth nor produced a positive signal | significant signal | 
Clc1ccccc1C(c1ccccc1)(c1ccccc1)n1ccnc1 [clotrimazole] |  | significant fluorescent signal | significant fluorescent signal | clotrimazole concentration range producing significant fluorescent signals ([2]; 1:10 and 1:100 target:decoy ratios, highest density of cells per well): 0.2 to 5.6 µg/mL; clotrimazole concentration range producing significant fluorescent signals ([2]; 1:10 and 1:100 target:decoy ratios, serial dilutions of cells): 0.2 to 2.8 µg/mL; clotrimazole concentration range producing significant fluorescent signals ([2]; 1:1000 target:decoy ratio, each of the cell densities): 0.2 to 5.6 µg/mL
